ChEMBL document CHEMBL4000157, “Total Synthesis of (±)-Kuwanol E” (J Nat Prod, 2016)

Assay: Inhibition of wild type recombinant Mycobacterium tuberculosis PTPB using p-nitrophenyl phosphate as substrate preincubated for 10 mins followed by substrate addition measured for 10 mins by UV-VIS spectrophotometer

## CC(C)=CCc1c(O)ccc(C(=O)[C@@H]2[C@@H](c3ccc(O)cc3O)CC(C)=C[C@H]2c2c(O)cc(/C=C/c3ccc(O)cc3O)cc2O)c1O
  Ki: 1600 nM
